Test results published in the supplement of paper PMC10307832.

Key:
Assay in all cases: relative viability (nuclei count vs DMSO), 5 days (fraction); higher = more cells survive
17-AAG + Trametinib = compound: C=CCNC1=C2C[C@@H](C)C[C@H](OC)[C@H](O)[C@@H](C)/C=C(\C)[C@H](OC(N)=O)[C@@H](OC)/C=C\C=C(/C)C(=O)NC(=CC1=O)C2=O [17-AAG] + CC(=O)Nc1cccc(-n2c(=O)n(C3CC3)c(=O)c3c(Nc4ccc(I)cc4F)n(C)c(=O)c(C)c32)c1 [Trametinib] (partner 0.02 µM)
Procedure, shortened: (§1)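 The day after seeding in 1536-well plates, lung cancer cell lines were treated by pin tool with a single drug, or with a fixed anchor-drug dose together with five library-drug doses (not always all listed) in √10 steps. After 5 days, a combined fix-and-stain solution (final 0.05% Triton X-100, 1% formaldehyde, 1 ug/ml Hoechst) was added. Nuclei counted on 4× images gave relative viability as treated counts over vehicle counts, reported as the median of duplicate plates.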

17-AAG + OSI-027 = compound: C=CCNC1=C2C[C@@H](C)C[C@H](OC)[C@H](O)[C@@H](C)/C=C(\C)[C@H](OC(N)=O)[C@@H](OC)/C=C\C=C(/C)C(=O)NC(=CC1=O)C2=O [17-AAG] + COc1cccc2cc(-c3nc([C@H]4CC[C@H](C(=O)O)CC4)n4ncnc(N)c34)[nH]c12 [OSI-027] (partner 0.5 µM)
Procedure, shortened: as §1

17-AAG + Lapatinib = compound: C=CCNC1=C2C[C@@H](C)C[C@H](OC)[C@H](O)[C@@H](C)/C=C(\C)[C@H](OC(N)=O)[C@@H](OC)/C=C\C=C(/C)C(=O)NC(=CC1=O)C2=O [17-AAG] + CS(=O)(=O)CCNCc1ccc(-c2ccc3ncnc(Nc4ccc(OCc5cccc(F)c5)c(Cl)c4)c3c2)o1 [Lapatinib] (partner 2 µM)
Procedure, shortened: as §1

17-AAG + Linsitinib = compound: C=CCNC1=C2C[C@@H](C)C[C@H](OC)[C@H](O)[C@@H](C)/C=C(\C)[C@H](OC(N)=O)[C@@H](OC)/C=C\C=C(/C)C(=O)NC(=CC1=O)C2=O [17-AAG] + C[C@]1(O)C[C@@H](c2nc(-c3ccc4ccc(-c5ccccc5)nc4c3)c3c(N)nccn32)C1 [Linsitinib] (partner 1 µM)
Procedure, shortened: as §1

| Cell Line | relative viability (17-AAG + Trametinib; first compound 0.00128 µM) | relative viability (17-AAG + Trametinib; first compound 0.004048 µM) | relative viability (17-AAG + Trametinib; first compound 0.0128 µM) | relative viability (17-AAG + Trametinib; first compound 0.04048 µM) | relative viability (17-AAG + Trametinib; first compound 0.128 µM) | relative viability (17-AAG + OSI-027; first compound 0.00128 µM) | relative viability (17-AAG + OSI-027; first compound 0.004048 µM) | relative viability (17-AAG + OSI-027; first compound 0.0128 µM) | relative viability (17-AAG + OSI-027; first compound 0.04048 µM) | relative viability (17-AAG + OSI-027; first compound 0.128 µM) | relative viability (17-AAG + Lapatinib; first compound 0.00128 µM) | relative viability (17-AAG + Lapatinib; first compound 0.004048 µM) | relative viability (17-AAG + Lapatinib; first compound 0.0128 µM) | relative viability (17-AAG + Lapatinib; first compound 0.04048 µM) | relative viability (17-AAG + Lapatinib; first compound 0.128 µM) | relative viability (17-AAG + Linsitinib; first compound 0.00128 µM) | relative viability (17-AAG + Linsitinib; first compound 0.004048 µM) | relative viability (17-AAG + Linsitinib; first compound 0.0128 µM) | relative viability (17-AAG + Linsitinib; first compound 0.04048 µM) | relative viability (17-AAG + Linsitinib; first compound 0.128 µM) |
| --- | --- | --- | --- | --- | --- | --- | --- | --- | --- | --- | --- | --- | --- | --- | --- | --- | --- | --- | --- | --- |
| NCI-H2126 | 0.576 | 0.568 | 0.625 | 0.594 | 0.443 | 0.778 | 0.758 | 0.479 | 0.231 | 0.291 | 0.731 | 0.784 | 0.775 | 0.53 | 0.276 | 0.753 | 0.688 | 0.776 | 0.692 | 0.373 |
| NCI-H2228 | 0.378 | 0.232 | 0.102 | 0.113 | 0.144 | 0.583 | 0.265 | 0.104 | 0.0876 | 0.0979 | 1.08 | 0.109 | 0.128 | 0.161 | 0.168 | 0.614 | 0.264 | 0.171 | 0.15 | 0.141 |
| NCI-H2347 | 0.335 | 0.275 | 0.351 | 0.288 | 0.321 | 0.323 | 0.395 | 0.464 | 0.241 | 0.201 | 0.938 | 0.96 | 1.04 | 0.647 | 0.432 | 0.91 | 0.84 | 0.997 | 0.656 | 0.37 |
| NCI-H2405 | 0.663 | 0.482 | 0.338 | 0.204 | 0.171 | 0.636 | 0.686 | 0.532 | 0.223 | 0.181 | 1.04 | 0.784 | 0.193 | 0.203 | 0.138 | 1.02 | 0.737 | 0.262 | 0.219 | 0.194 |
| NCI-H3122 | 0.23 | 0.283 | 0.173 | 0.177 | 0.106 | 0.713 | 0.169 | 0.126 | 0.12 | 0.114 | 1 | 0.931 | 0.542 | 0.293 | 0.218 | 1.02 | 0.985 | 0.254 | 0.207 | 0.138 |
| PC-3 [JPC-3] | 0.681 | 0.711 | 0.68 | 0.472 | 0.551 | 0.729 | 0.787 | 0.851 |  | 0.653 | 0.486 | 0.442 | 0.444 |  | 0.472 | 1 | 0.883 | 0.959 |  | 0.911 |
| PC-14 | 0.619 | 0.111 | 0.0838 | 0.101 | 0.0786 | 0.803 | 0.289 | 0.0511 | 0.0734 | 0.0603 | 0.315 | 0.304 | 0.311 | 0.156 | 0.113 | 1 | 0.879 | 0.575 | 0.169 | 0.124 |
| RERF-LC-KJ | 0.837 | 0.864 | 0.737 | 0.404 | 0.244 | 0.62 | 0.637 | 0.231 | 0.268 | 0.22 | 0.957 | 0.901 | 1.04 | 0.508 | 0.297 | 0.857 | 0.886 | 0.923 | 0.881 | 0.275 |
| SK-LU-1 | 0.436 | 0.473 | 0.217 | 0.195 | 0.216 | 0.342 | 0.17 | 0.102 | 0.0747 | 0.0783 | 0.812 | 0.545 | 0.454 | 0.216 | 0.14 | 1.19 | 0.455 | 0.352 | 0.212 | 0.191 |
| SK-MES-1 | 0.562 | 0.401 | 0.221 | 0.179 | 0.168 | 0.597 | 0.426 | 0.127 | 0.136 | 0.134 | 0.55 | 0.559 | 0.405 | 0.188 | 0.145 | 1 | 1.01 | 0.598 | 0.282 | 0.165 |
| SW 1573 | 0.589 | 0.381 | 0.161 | 0.117 | 0.0829 | 0.639 | 0.444 | 0.163 | 0.108 | 0.091 | 1.06 | 1.21 | 0.897 | 0.217 | 0.117 | 0.987 | 0.901 | 0.647 | 0.249 | 0.128 |
| UMC-11 | 0.672 | 0.773 | 0.629 | 0.234 | 0.145 | 0.469 | 0.512 | 0.255 | 0.233 | 0.202 | 0.887 | 0.992 | 0.566 | 0.204 | 0.127 | 0.967 | 0.943 | 0.751 | 0.299 | 0.178 |
